Like-named read-outs stand apart in the source and are kept apart here.
Tests used:
[1] = target: T1, purified recombinant human Aggrecanase-1 (rAgg1) (Homo sapiens, UniProt O75173); assay: In vitro fluorescence screen for Aggrecanase-1 inhibitors; type: biochemical; set-up: Agg1 % at concentration: scale not given here; details: for IC50: read-out: Agg1 IC50; for Ki: read-out: Ki Agg1
T1 sequence (O75173 213-837): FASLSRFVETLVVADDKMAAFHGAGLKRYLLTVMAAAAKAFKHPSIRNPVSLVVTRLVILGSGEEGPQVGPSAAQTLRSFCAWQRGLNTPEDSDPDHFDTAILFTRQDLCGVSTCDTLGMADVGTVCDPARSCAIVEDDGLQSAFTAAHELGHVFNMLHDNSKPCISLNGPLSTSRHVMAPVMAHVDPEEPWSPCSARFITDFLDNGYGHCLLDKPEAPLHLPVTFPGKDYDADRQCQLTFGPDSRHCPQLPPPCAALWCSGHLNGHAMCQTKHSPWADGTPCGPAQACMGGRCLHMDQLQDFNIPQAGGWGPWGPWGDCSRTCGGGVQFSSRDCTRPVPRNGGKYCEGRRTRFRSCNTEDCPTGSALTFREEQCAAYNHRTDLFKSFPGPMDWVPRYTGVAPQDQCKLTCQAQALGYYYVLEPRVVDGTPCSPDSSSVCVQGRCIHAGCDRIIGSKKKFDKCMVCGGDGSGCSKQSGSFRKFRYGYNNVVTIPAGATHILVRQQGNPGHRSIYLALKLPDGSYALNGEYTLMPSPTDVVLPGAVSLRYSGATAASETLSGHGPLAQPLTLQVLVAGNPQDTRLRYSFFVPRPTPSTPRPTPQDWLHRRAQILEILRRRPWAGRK

[2] = target: T2, purified recombinant human Aggrecanase-2 (Ag2t-Phe628-Strep) (Homo sapiens, UniProt Q9UNA0); assay: In vitro fluorescence screen for Aggrecanase-2 inhibitors; type: biochemical; details: for IC50: read-out: Agg 2 IC50; for Ki: read-out: Ki Agg2
T2 construct: the form used is denoted as Ag2t-Phe628-Strep (MW=41,737)
T2 sequence (Q9UNA0 262-628): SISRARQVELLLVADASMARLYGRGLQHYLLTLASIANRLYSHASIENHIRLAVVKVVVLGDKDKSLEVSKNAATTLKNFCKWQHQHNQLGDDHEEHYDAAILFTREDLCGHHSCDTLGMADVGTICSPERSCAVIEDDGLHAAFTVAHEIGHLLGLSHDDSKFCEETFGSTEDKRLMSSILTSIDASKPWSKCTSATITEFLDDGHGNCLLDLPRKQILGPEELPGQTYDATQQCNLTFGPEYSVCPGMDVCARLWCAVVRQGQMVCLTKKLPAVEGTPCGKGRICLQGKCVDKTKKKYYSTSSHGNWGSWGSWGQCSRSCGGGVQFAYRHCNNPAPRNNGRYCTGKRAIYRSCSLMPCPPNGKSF

[3] = read-out: Agg 2 % at concentration

Structure (SMILES)	IC50 ([1]; Table 2) [nM]	IC50 ([2]; Table 2) [nM]	other results
CN(C)C(=O)c1cccc(-c2ccc(C(=O)N[C@@H](CCC(=O)O)C(=O)NCC34CC5CC(CC(C5)C3)C4)cc2)c1 [Example 17W, N-(1-adamantylmethyl)-N^2-({3′-[(dimethylamino)carbonyl]biphenyl-4-yl}carbonyl)-L-α-glutamine]	> 25000	~67000	
Cc1cc(C)cc(-c2ccc(C(=O)N[C@@H](CCC(=O)O)C(=O)NCC34CC5CC(CC(C5)C3)C4)cc2)c1 [Example 17X, N-(1-adamantylmethyl)-N^2-[(3′,5′-dimethylbiphenyl-4-yl)carbonyl]-L-α-glutamine]	2000	~22000	
Cc1cccc(-c2ccc(C(=O)N[C@@H](CCC(=O)O)C(=O)NC(C)(C)Cc3ccc(F)cc3)cc2)c1 [Example 17Y, N-[2-(4-fluorophenyl)-1,1-dimethylethyl]-N^2-[(3′-methylbiphenyl-4-yl)carbonyl]-L-α-glutamine]	< 30	156	
COc1cc(CNC(=O)[C@H](CCC(=O)O)NC(=O)c2ccc(-c3cccc(C(C)C)c3)cc2)cc(OC)c1OC [Example 17Z, N^2-[(3′-isopropylbiphenyl-4-yl)carbonyl]-N-(3,4,5-trimethoxybenzyl)-L-α-glutamine]	170	3140	
COc1cc(CNC(=O)[C@H](CCC(=O)O)NC(=O)c2ccc(Br)cc2)cc(OC)c1OC [Example 18D, N^2-(4-bromobenzoyl)-N-(3,4,5-trimethoxybenzyl)-L-α-glutamine]	4400	> 22000	
CC(C)(Cc1ccccc1)NC(=O)[C@H](CCC(=O)O)NC(=O)c1ccc(Br)cc1 [Example 18E, N^2-(4-bromobenzoyl)-N-(1,1-dimethyl-2-phenylethyl)-L-α-glutamine]	2200	> 11000	
O=C(O)CC[C@H](NC(=O)c1ccc(Br)cc1)C(=O)NCC12CC3CC(CC(C3)C1)C2 [Example 18F, N-(1-adamantylmethyl)-N^2-(4-bromobenzoyl)-L-α-glutamine]	> 67000	> 67000	
COc1cccc(COc2ccc(-c3ccc(C(=O)N[C@@H](CCC(=O)O)C(=O)NCC45CC6CC(CC(C6)C4)C5)cc3)cc2)c1 [Example 19A, N-(1-adamantylmethyl)-N^2-({4′-[(3-methoxybenzyl)oxy]biphenyl-4-yl}carbonyl)-L-α-glutamine]	930	1020	
COc1cc(COc2ccc(-c3ccc(C(=O)N[C@@H](CCC(=O)O)C(=O)NCC45CC6CC(CC(C6)C4)C5)cc3)cc2)cc(OC)c1 [Example 19B, N-(1-adamantylmethyl)-N^2-(4′-{[(3,5-dimethoxybenzyl)oxy]biphenyl-4-yl}carbonyl)-L-α-glutamine]	3200	590	
COc1cc(COc2ccc(-c3ccc(C(=O)N[C@@H](CCC(=O)O)C(=O)NC(C)(C)Cc4ccccc4)cc3)cc2)cc(OC)c1 [Example 19C, N^2-({4′-[(3,5-dimethoxybenzyl)oxy]biphenyl-4-yl}carbonyl)-N-(1,1-dimethyl-2-phenylethyl)-L-α-glutamine]	140	75	
COc1cc(CNC(=O)[C@H](CCC(=O)O)NC(=O)c2ccc(-c3ccc(OCc4cc(C)cc(C)c4)cc3)cc2)cc(OC)c1OC [Example 19D, N^2-({4′-[(3,5-dimethylbenzyl)oxy]biphenyl-4-yl}carbonyl)-N-(3,4,5-trimethoxybenzyl)-L-α-glutamine]	210	223	
COc1cc(CNC(=O)[C@H](CCC(=O)O)NC(=O)c2ccc(-c3ccc(OCc4cc(C(F)(F)F)cc(C(F)(F)F)c4)cc3)cc2)cc(OC)c1OC [Example 19E, N^2-[(4′-{[3,5-bis(trifluoromethyl)benzyl]oxy}biphenyl-4-yl)carbonyl]-N-(3,4,5-trimethoxybenzyl)-L-α-glutamine]	49	1120	
COc1cccc(COc2ccc(-c3ccc(C(=O)N[C@@H](CCC(=O)O)C(=O)NC(C)(C)Cc4ccccc4)cc3)cc2)c1 [Example 19F, N-(1,1-dimethyl-2-phenylethyl)-N^2-({4′-[(3-methoxybenzyl)oxy]biphenyl-4-yl}carbonyl)-L-α-glutamine]	68	163	
COc1cc(COc2ccc(-c3ccc(C(=O)N[C@@H](CCC(=O)O)C(=O)NCCCCCCO)cc3)cc2)cc(OC)c1 [Example 19G, N^2-({4′-[(3,5-dimethoxybenzyl)oxy]biphenyl-4-yl}carbonyl)-N-(6-hydroxyhexyl)-L-α-glutamine]	270	146	
COc1cccc(COc2ccc(-c3ccc(C(=O)N[C@@H](CCC(=O)O)C(=O)NCc4cc(OC)c(OC)c(OC)c4)cc3)cc2)c1 [Example 19H, N^2-({4′-[(3-methoxybenzyl)oxy]biphenyl-4-yl}carbonyl)-N-(3,4,5-trimethoxybenzyl)-L-α-glutamine]	69	158	
CC(C)(Cc1ccccc1)NC(=O)[C@H](CCC(=O)O)NC(=O)c1ccc(-c2ccccc2)o1 [N-(1,1-dimethyl-2-phenylethyl)-N^2-(5-phenyl-2-furoyl)-L-α-glutamine]			Agg1 % at concentration ([1]; Table 3, at 8300 (nM)): 30%; Agg 2 % at concentration ([2]; Table 3, at 25000 (nM)): 28%
CC(C)(Cc1ccccc1)NC(=O)[C@H](CCC(=O)O)NC(=O)c1ccc(-c2nccs2)cc1 [N-(1,1-dimethyl-2-phenylethyl)-N^2-[4-(1,3-thiazol-2-yl)benzoyl]-L-α-glutamine]			IC50 ([1]; Table 3): 270 nM; inhibition at 25 µM [2, 3]: 62%
CC(C)(Cc1ccccc1)NC(=O)[C@H](CCC(=O)O)NC(=O)c1ccc(-c2cccs2)cc1 [N-(1,1-dimethyl-2-phenylethyl)-N^2-[4-(2-thienyl)benzoyl]-L-α-glutamine]			IC50 ([1]; Table 3): < 30 nM; Ki ([1]; Table 3): < 3 nM; IC50 ([2]; Table 3): 60 to 200 nM; Ki ([2]; Table 3): 38 nM
CC(C)(Cc1ccccc1)NC(=O)[C@H](CCC(=O)O)NC(=O)c1ccc(-c2ccc(C=O)s2)cc1 [N-(1,1-dimethyl-2-phenylethyl)-N^2-[4-(5-formyl-2-thienyl)benzoyl]-L-α-glutamine]			IC50 ([1]; Table 3): < 30 nM; IC50 ([2]; Table 3): 500 nM
CC(C)(Cc1ccccc1)NC(=O)[C@H](CCC(=O)O)NC(=O)c1ccc(-c2cccnc2)s1 [N-(1,1-dimethyl-2-phenylethyl)-N^2-[(5-pyridin-3-yl-2-thienyl)carbonyl]-L-α-glutamine]			Agg1 % at concentration ([1]; Table 3, at 70 (nM)): 57% 70; IC50 ([2]; Table 3): 7200 nM
CC(C)(Cc1ccccc1)NC(=O)[C@H](CCC(=O)O)NC(=O)c1ccc(-c2ccncc2)s1 [N-(1,1-dimethyl-2-phenylethyl)-N^2-[(5-pyridin-4-yl-2-thienyl)carbonyl]-L-α-glutamine]			IC50 ([1]; Table 3): < 30 nM; IC50 ([2]; Table 3): 3300 nM
CC(C)(Cc1ccccc1)NC(=O)[C@H](CCC(=O)O)NC(=O)c1ccc(-c2ccccc2)nc1 [N-(1,1-dimethyl-2-phenylethyl)-N^2-[(6-phenylpyridin-3-yl)carbonyl]-L-α-glutamine]			IC50 ([1]; Table 3): 100 nM; IC50 ([2]; Table 3): 700 nM
COc1cccc(-c2ccc(C(=O)N[C@@H](CCC(=O)O)C(=O)NC(C)(C)Cc3ccccc3)s2)c1 [N-(1,1-dimethyl-2-phenylethyl)-N^2-{[5-(3-methoxyphenyl)-2-thienyl]carbonyl}-L-α-glutamine]			IC50 ([1]; Table 3): < 30 nM; Ki ([1]; Table 3): < 3 nM; IC50 ([2]; Table 3): 70 to 200 nM; Ki ([2]; Table 3): 151 nM
CC(C)(Cc1ccc(Cl)cc1)NC(=O)[C@H](CCC(=O)O)NC(=O)c1ccc(-c2ccccc2)o1 [N-[2-(4-chlorophenyl)-1,1-dimethylethyl]-N^2-(5-phenyl-2-furoyl)-L-α-glutamine]			Agg1 % at concentration ([1]; Table 3, at 16700 (nM)): 60%; Agg 2 % at concentration ([2]; Table 3, at 50000 (nM)): 50%
CC(C)(Cc1ccc(Cl)cc1)NC(=O)[C@H](CCC(=O)O)NC(=O)c1cccc(-c2cccs2)c1 [N-[2-(4-chlorophenyl)-1,1-dimethylethyl]-N^2-[3-(2-thienyl)benzoyl]-L-α-glutamine]			Agg1 % at concentration ([1]; Table 3, at 25000 (nM)): 16%; Agg 2 % at concentration ([2]; Table 3, at 25000 (nM)): 10%
CC(C)(Cc1ccc(Cl)cc1)NC(=O)[C@H](CCC(=O)O)NC(=O)c1ccc(-c2nccs2)cc1 [N-[2-(4-chlorophenyl)-1,1-dimethylethyl]-N^2-[4-(1,3-thiazol-2-yl)benzoyl]-L-α-glutamine]			IC50 ([1]; Table 3): 1200 nM; inhibition at 2.5 µM [2, 3]: 50%

From patent US7998965B2, “Glutamate aggrecanase inhibitors” (Wyeth LLC, priority 2005, dated 2011)
